Reference: patent publication US10004740B2, “Prodrugs of HIV reverse transcriptase inhibitors” (Merck Sharp & Dohme Corp., priority 2014, dated 2018)

How the values were obtained:
[1] = Pharmacokinetic studies in rats, oral gavage, plasma LC-MS/MS; assay type: in vivo; conditions: male, Wistar-Hannover; rat, 5 mg/kg PO, 40% PEG400/10% Tween-80/50% water; plasma concentration of Parent after dosing the Parent compound
Protocol: All animal studies were carried out under Good Laboratory Practice regulations for nonclinical laboratory studies. All animal housing and care procedures were in compliance with the Federal Animal Welfare Act and the Institute for Laboratory Animal Resources. All procedures carried out on the animals were reviewed and approved by the Institutional Animal Care and Use Committee. The animal facility was fully accredited with the Association for Assessment and Accreditation of Laboratory Animal Care International.
Two or three male Wistar-Hannover rats weighing 250 to 350 grams with vendor-placed carotid artery catheters were obtained from Charles River (Raleigh, N.C., U.S.A.). Animals were acclimated on a 12-hour light:dark cycle for a minimum of three days in ventilated plastic cages with food and water ad libitum. Blood samples were automatically collected using the Instech Automated Blood sampler (ABS, Plymouth Meeting, Pa.) at designated intervals up to 24 hr and were manually collected post 24 hr.
Animals were fasted overnight before either the Parent compounds of Examples 1-8 (Formula I′) or compounds of Examples 1 to 8 (Formula I) were administered to rats via an oral gavage at the doses and in vehicles specified in Table 3. The animals were allowed access to water ad libitum, while food was returned 4 hours after dosing.
Blood was drawn from catheters placed in the carotid […] at pre-dose, and 0.25, 0.5, 1, 2, 4, 8, 12, 18, 24, 30, and 48 hr after dosing for all compounds and additionally at 72 hr for compounds of example 1, 3, 4, 5, and 7. The plasma was separated by centrifugation (2 minutes at 10000 rpm) and stored at −70° C. until further analysis.
The quantitative analysis of the compounds was performed using a liquid chromatography and tandem mass spectrometry method (LC-MS/MS). The plasma samples were stabilized as needed prior to extraction. Fifty microliter of each unknown together with the standards and quality control samples were extracted using an automated protein precipitation procedure on a Hamilton workstation. The extract was centrifuged and the supernatant was transferred for analysis. The separation was enabled by a Thermo Aria LX-2 LC system on a reversed phase column e g Waters XSelect HSS T3 XP (50×2.1 mm×2.5 u) or Phenomenex Beta Test Column (50×2.1 mm). The compounds were detected using selected reaction monitoring (SRM) methods by an AB Sciex API5000 mass spectrometer in the positive or negative ionization mode. In addition, chromatographic peaks for Parent compounds of Examples 1-8 (Formula I′) and compounds of Examples 1 to 8 (Formula I) were resolved chromatographically with baseline to baseline separation.
Pharmacokinetic parameters were obtained using noncompartmental methods (Watson®). The area under the plasma concentration-time curve (AUC0-t) was calculated from the first time point (0 minutes) up to the last time point with measurable drug concentration (i.e., concentration of Parent (Formula I′ compound) resulting after administration of each of the Parent and Example compounds) using the linear trapezoidal or linear/log-linear trapezoidal rule. The remaining area under the plasma concentration-time curve (AUCt-∞) was estimated by dividing the observed concentration at the last time point by the elimination rate constant. This value was added to AUC0-t to estimate the AUC0-∞. The maximum plasma concentration (Cmax) and the time at which maximum concentration occurred (Tmax) were obtained by inspection of the plasma concentration-time data.
Table 3 provides AUC values obtained in these studies. In Table 3, the Parent of each Example number refers to the Parent counterpart compound of said Example number compound wherein R^4 is replaced with —H.

[2] = molecular target: T1, HIV-1 RT wild-type enzyme (Human immunodeficiency virus type 1 group M subtype B, UniProt P04585); assay: Determination of HIV-1 reverse transcriptase inhibitory activity (RT polymerase assay, electrochemiluminescence); assay type: biochemical
T1 construct: The HIV-1 RT wild-type enzyme (final concentration of 83 pM)
Excerpt: Determination of HIV-1 Reverse Transcriptase Inhibitory Activity
The heterodimeric nucleic acid substrate used in the HIV-1 RT polymerase reactions was generated by annealing the DNA primer, biotinylated pD500 (Sigma Aldrich, USA, 5′-biotin-ttg aaa tga ctg cgg tac ggc-3′), (SEQ ID NO: 1) to the nucleotide RNA template t500 (derived from hepatitis C virus [HCV] sequence, IBA, Germany, 5′-[…]-3′), (SEQ ID NO: 2). The HIV-1 RT wild-type enzyme (final concentration of 83 pM) was combined with an inhibitor or dimethyl sulfoxide (DMSO, 10% in the final reaction mixture) in assay buffer (62.5 mM Tris-HCl [pH 7.8], 1.25 mM dithiothreitol, 7.5 mM MgCl2, 100 mM KCl, 0.03% CHAPS, and 125 μM EGTA). The mixture was then preincubated on an orbital shaker for 30 min at room temperature in microtiter plates (Costar 3365, Corning, USA). A polymerization reaction was initiated by the addition of RNA template/pD500 DNA primer hybrid (16.6 nM final of RNA/DNA hybrid) and dNTPs (2 μM dATP, dGTP, dCTP and 66.6 nM Ru-dUTP (Meso Scale Discovery, USA)). Plate was sealed and incubated for 5-10 min at room temperature on an orbital shaker. Plate was then incubated for 90 min at 37° C. and reactions quenched with 60 μl quenching buffer (50 mM EDTA, 0.7% BSA, 0.7% Tween-20, 0.017% sodium azide in PBS). The resulting solution was incubated at room temperature for an additional 5 min and then 50 μL was transferred to pre-blocked Avidin plates (L15AA, Meso Scale Discovery). Each well of Avidin plate was blocked for 1 h at room temperature with 100 μL 5% BSA in PBS. Blocking solution was removed by tapping vigorously on filter paper to remove all excess liquid. Reaction on pre-blocked avidin plate proceeded for 60 min at room temperature and then contents removed by tapping vigorously on filter paper to remove all excess liquid. After washing plate 3 times with 150 μL 1×PBS and blotting dry between cycles, 150 μL 1× Read Buffer T (4× Read Buffer T, Meso Scale Discovery) was added and incubated for 5 min at room temperature before counting on a Sector Imager […] (Meso Scale Discovery). Titration curves and IC50 values were calculated using a four parameter logistic fit according to standard procedures. Briefly, % Inhibition=100×((sample raw value)−(mean value of the low control or 0% inhibition))/((mean value of wells representing 100% inhibition)−(mean value of 0% inhibition)). In this assay, low control wells contain DMSO (0% inhibition) and 100% inhibition wells contain 1 μM efavirenz.

Compound	AUC(0-inf) [1] [µM·h]	IC50 [2] [nM]
CC(F)(F)c1cc(Cn2cnc(C(C)(F)F)c(Oc3cc(Cl)cc(C#N)c3)c2=O)c(=O)[nH]n1 [Parent of Ex. 8, 3-chloro-5-((4-(1,1-difluoroethyl)-1-((6-(1,1-difluoroethyl)-3-oxo-2,3-dihydropyridazin-4-yl)methyl)-6-oxo-1,6-dihydropyrimidin-5-yl)oxy)benzonitrile]	13.9	4.7
N#Cc1cc(Cl)cc(Oc2c(C(F)(F)F)ncn(Cc3cc(C(F)F)n[nH]c3=O)c2=O)c1 [Parent of Ex. 4, 3-chloro-5-((1-((6-(difluoromethyl)-3-oxo-2,3-dihydropyridazin-4-yl)methyl)-6-oxo-4-(trifluoromethyl)-1,6-dihydropyrimidin-5-yl)oxy)benzonitrile]	21	3.2
N#Cc1cc(Cl)cc(Oc2c(C(F)(F)F)ncn(Cc3cc(C(F)(F)F)c(=O)[nH]n3)c2=O)c1 [Parent of Ex. 6, 3-chloro-5-((6-oxo-1-((6-oxo-5-(trifluoromethyl)-1,6-dihydropyridazin-3-yl)methyl)-4-(trifluoromethyl)-1,6-dihydropyrimidin-5-yl)oxy)benzonitrile]	2	7.9
N#Cc1cc(Cl)cc(Oc2c(C(F)(F)F)ncn(Cc3cc(Cl)n[nH]c3=O)c2=O)c1 [Parent of Ex. 3, 3-chloro-5-((1-((6-chloro-3-oxo-2,3-dihydropyridazin-4-yl)methyl)-6-oxo-4-(trifluoromethyl)-1,6-dihydropyrimidin-5-yl)oxy)benzonitrile]	10.2	2.7
CC(F)(F)c1cc(Cn2cnc(C(F)(F)F)c(Oc3cc(Cl)cc(C#N)c3)c2=O)c(=O)[nH]n1 [Parent of Ex. 5, 3-chloro-5-((1-((6-(1,1-difluoroethyl)-3-oxo-2,3-dihydropyridazin-4-yl)methyl)-6-oxo-4-(trifluoromethyl)-1,6-dihydropyrimidin-5-yl)oxy)benzonitrile]	29.1	4.6
N#Cc1cc(Cl)cc(Oc2c(C(F)F)ncn(Cc3cc(Cl)n[nH]c3=O)c2=O)c1 [Parent of Ex. 2, 3-chloro-5-((1-((6-chloro-3-oxo-2,3-dihydropyridazin-4-yl)methyl)-4-(difluoromethyl)-6-oxo-1,6-dihydropyrimidin-5-yl)oxy)benzonitrile]	15.3	3.3
N#Cc1cc(Cl)cc(Oc2c(C(F)(F)F)ncn(Cc3cc(-c4ccc(F)cc4)c(=O)[nH]n3)c2=O)c1 [Parent of Ex. 7, 3-chloro-5-((1-((5-(4-fluorophenyl)-6-oxo-1,6-dihydropyridazin-3-yl)methyl)-6-oxo-4-(trifluoromethyl)-1,6-dihydropyrimidin-5-yl)oxy)benzonitrile]	8.2	3.7
